The values below come from US8895558B2, “Arylpiperazine-containing pyrrole 3-carboxamide derivatives for treating depressive disorders” (Green Cross Corporation, priority 2008, dated 2014).

Counter-ions that a name gives are not always drawn.

The target in experiment [1] is T1, human recombinant serotonin 5-HT2A receptor (Homo sapiens, UniProt P28223).
T1 construct: purchased PerkinElmer Life and Analytical Sciences, USA; host or cells: CHO-K1
In words: Binding affinity for serotonin 5-HT2A receptor ([3H]Ketanserin). The note with it: CHO-K1 expressed receptor, 1 nM [3H]Ketanserin. The procedure: Receptor binding affinities of the compounds for serotonin receptors were measured by the method described in the literature [Park W K et al., Pharmacol Biochem Behav. 2005, 82(2), 361-372].
For serotonin 5-HT2A binding, an aliquot of human recombinant serotonin 5-HT2A receptor (PerkinElmer Life and Analytical Sciences, USA) expressed in CHO-K1 cells (5 ug/well) and 1 nM [^3H]Ketanserin (PerkinElmer) were used in the presence of mianserin (20 uM) as nonspecific. The reaction mixture was incubated for 60 min at 27 using 50 mM Tris-HCl (pH 7.4) buffer containing 4 mM CaCl2 and 0.1% ascorbic acid, and harvested through filtermate A glass fiber filter (Wallac, Finland) presoaked in 0.5% polyethyleneimine (PEI) by microbeta filtermate-96 harvester (PerkinElmer) to terminate the reaction, and then washed with ice cold 50 mM Tris-HCl buffer solution (pH 7.4). The filter was then covered with MeltiLex, sealed in a sample bag, dried in an oven. The radioactivity retained in the filter was finally counted using MicroBeta Plus (Wallac).
(§1) The binding affinity (IC50) of a compound for the receptor was calculated by computerized nonlinear regression analysis (GraphPad Prism Program, San Diego, USA) using 7-8 varied concentrations of the compound run in duplicate tubes.

The target in experiment [2] is T2, human serotonin transporter (Homo sapiens, UniProt P31645).
T2 construct: purchased PerkinElmer; host or cells: HEK-293
T2 sequence (P31645 whole entry): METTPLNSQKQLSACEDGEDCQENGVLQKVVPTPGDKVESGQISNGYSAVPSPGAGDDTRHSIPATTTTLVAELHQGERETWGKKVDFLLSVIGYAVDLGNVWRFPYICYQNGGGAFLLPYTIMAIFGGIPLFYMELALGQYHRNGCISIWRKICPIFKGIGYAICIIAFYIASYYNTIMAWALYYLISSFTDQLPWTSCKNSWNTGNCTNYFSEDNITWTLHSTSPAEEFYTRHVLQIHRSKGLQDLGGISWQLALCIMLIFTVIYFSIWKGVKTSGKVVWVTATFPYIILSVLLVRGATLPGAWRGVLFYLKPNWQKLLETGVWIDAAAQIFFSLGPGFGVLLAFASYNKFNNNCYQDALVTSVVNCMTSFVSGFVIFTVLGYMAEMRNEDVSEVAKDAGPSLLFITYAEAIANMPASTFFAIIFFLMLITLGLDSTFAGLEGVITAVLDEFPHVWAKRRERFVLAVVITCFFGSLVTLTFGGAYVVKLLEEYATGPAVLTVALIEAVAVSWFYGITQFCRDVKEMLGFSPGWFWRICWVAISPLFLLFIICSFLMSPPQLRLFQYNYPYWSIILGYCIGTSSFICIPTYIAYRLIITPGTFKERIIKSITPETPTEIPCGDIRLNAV
In words: Binding affinity for serotonin transporter ([3H]Imipramine). The conditions noted are these: HEK-293 membranes, 2 nM [3H]Imipramine. As to the method:
For serotonin transporter binding assays, a reaction mixture with a final volume of 0.25 ml was prepared by mixing a test compound, human serotonin transporter membrane expressed in HEK-293 cells (PerkinElmer, 5 ug/well), [^3H]Imipramine (PerkinElmer, 2 nM) and 50 mM Tris-HCl (pH 7.4) buffer containing 120 mM NaCl and 5 mM KCl. The reaction mixture was incubated for 30 min at 27, and harvested through filtermate. A glass fiber filter presoaked in 0.5% PEI with ice cold 50 mM Tris-HCl buffer (pH 7.4) containing 0.9% NaCl.

Experiment [3] addresses T3, human recombinant 5-HT2C receptor (Homo sapiens, UniProt P28335).
T3 construct: purchased PerkinElmer
T3 sequence (P28335 33-458): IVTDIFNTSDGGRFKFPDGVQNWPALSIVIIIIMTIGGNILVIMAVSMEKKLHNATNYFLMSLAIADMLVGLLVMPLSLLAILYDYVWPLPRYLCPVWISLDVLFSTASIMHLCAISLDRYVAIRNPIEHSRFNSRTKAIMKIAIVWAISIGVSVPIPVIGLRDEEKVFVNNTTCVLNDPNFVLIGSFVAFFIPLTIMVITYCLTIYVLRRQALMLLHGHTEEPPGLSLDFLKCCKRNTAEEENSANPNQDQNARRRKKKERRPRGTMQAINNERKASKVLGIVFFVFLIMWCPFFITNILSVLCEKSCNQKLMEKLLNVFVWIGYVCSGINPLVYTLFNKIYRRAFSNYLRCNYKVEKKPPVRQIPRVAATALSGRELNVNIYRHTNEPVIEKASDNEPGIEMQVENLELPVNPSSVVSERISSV
In words: Binding affinity for serotonin 5-HT2C receptor ([3H]Mesulergine). The conditions noted are these: CHO-K1 membranes, 1.3 nM [3H]Mesulergine. As to the method: Receptor binding affinities of the compounds for serotonin receptors were measured by the method described in the literature [Park W K et al., Pharmacol Biochem Behav.
as §1
Nonspecific binding was determined using 100 uM mianserin. The incubations were performed for 60 min at 27, and these were terminated by rapid filtration through filtermate. A glass fiber filter presoaked in 0.5% PEI.

T1 sequence (P28223 whole entry): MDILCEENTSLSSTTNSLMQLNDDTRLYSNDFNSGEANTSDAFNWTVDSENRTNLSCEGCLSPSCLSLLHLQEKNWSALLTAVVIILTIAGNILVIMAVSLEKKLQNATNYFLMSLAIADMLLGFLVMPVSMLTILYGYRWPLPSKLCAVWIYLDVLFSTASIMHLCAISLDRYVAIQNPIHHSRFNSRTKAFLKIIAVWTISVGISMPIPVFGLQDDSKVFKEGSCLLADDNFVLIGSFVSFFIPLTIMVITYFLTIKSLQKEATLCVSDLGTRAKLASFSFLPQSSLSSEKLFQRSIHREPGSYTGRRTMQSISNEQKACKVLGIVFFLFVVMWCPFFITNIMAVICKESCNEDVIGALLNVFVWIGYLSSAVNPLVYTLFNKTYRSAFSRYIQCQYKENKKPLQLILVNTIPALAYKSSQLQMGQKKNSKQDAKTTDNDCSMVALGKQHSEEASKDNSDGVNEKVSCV

In general, IC50 refers to the concentration that inhibits the measured activity by half. For the compound `Cc1c(C(=O)NCCCN2CCN(c3cccc(Cl)c3Cl)CC2)cc(-c2ccccc2)n1Cc1ccccc1` [Example 19, 1-Benzyl-N-(3-(4-(2,3-dichlorophenyl)piperazin-1-yl)propyl)-2-methyl-5-phenyl-1H-pyrrole-3-carboxamide], the IC50 was found to be 354 nM in experiment [1], 125 nM in experiment [2] and 220 nM in experiment [3].
With `Cc1c(C(=O)NCCCN2CCN(c3cccc(Cl)c3)CC2)cc(-c2ccccc2)n1CC1CCCCC1` [Example 20, N-(3-(4-(3-chlorophenyl)piperazin-1-yl)propyl)-1-(cyclohexylmethyl)-2-methyl-5-phenyl-1H-pyrrole-3-carboxamide], the values for the IC50 in experiment [1], in experiment [2] and in experiment [3] were 1070 nM, 213 nM and 611 nM, respectively.
As for `Cc1cccc(N2CCN(CCCNC(=O)c3cc(-c4ccccc4)n(CC4CCCCC4)c3C)CC2)c1C` [Example 21, 1-(Cyclohexylmethyl)-N-(3-(4-(2,3-dimethylphenyl)piperazin-1-yl)propyl)-2-methyl-5-phenyl-1H-pyrrole-3-carboxamide], the IC50 in experiment [1] was 1230 nM; in experiment [2] it was 352 nM; in experiment [3] it was 638 nM.
In the case of `Cc1c(C(=O)NCCCN2CCN(c3cccc(Cl)c3Cl)CC2)cc(-c2ccccc2)n1CC1CCCCC1` [Example 22, 1-(cyclohexylmethyl)-N-(3-(4-(2,3-dichlorophenyl)piperazin-1-yl)propyl)-2-methyl-5-phenyl-1H-pyrrole-3-carboxamide], the half-inhibitory concentration (IC50) was found to be 4380 nM in experiment [1], 412 nM in experiment [2] and 1030 nM in experiment [3].
On to `Cc1[nH]c(-c2ccccc2)cc1C(=O)NCCCN1CCN(c2cccc(Cl)c2)CC1` [Example 23, N-(3-(4-(3-chlorophenyl)piperazin-1-yl)propyl)-2-methyl-5-phenyl-1H-pyrrole-3-carboxamide], for which the IC50 in experiment [1] worked out at 245 nM; in experiment [2], 92 nM; in experiment [3], 280 nM.
As to `Cc1cccc(N2CCN(CCCNC(=O)c3cc(-c4ccccc4)[nH]c3C)CC2)c1C` [Example 24, N-(3-(4-(2,3-dimethylphenyl)piperazin-1-yl)propyl)-2-methyl-5-phenyl-1H-pyrrole-3-carboxamide], the IC50 in experiment [1] was determined as 300 nM; in experiment [2] it was 77 nM; in experiment [3], 615 nM.
Regarding `Cc1[nH]c(-c2ccccc2)cc1C(=O)NCCCN1CCN(c2cccc(Cl)c2Cl)CC1` [Example 25, N-(3-(4-(2,3-dichlorophenyl)piperazin-1-yl)propyl)-2-methyl-5-phenyl-1H-pyrrole-3-carboxamide], the values for the IC50 in experiment [1], in experiment [2] and in experiment [3] were 300 nM, 133 nM and 599 nM, respectively.
Consider `Cc1cccc(N2CCN(CCCNC(=O)c3cc(-c4ccccc4)n(CC(C)C)c3C)CC2)c1C` [Example 27, N-(3-(4-(2,3-dimethylphenyl)piperazin-1-yl)propyl)-1-isobutyl-2-methyl-5-phenyl-1H-pyrrole-3-carboxamide], for which the IC50 is 897 nM in experiment [1], 350 nM in experiment [2] and 1300 nM in experiment [3].
Taken in the same sequence, the figures for `Cc1c(C(=O)NCCCN2CCN(c3cccc(Cl)c3Cl)CC2)cc(-c2ccccc2)n1CC(C)C` [Example 28, N-(3-(4-(2,3-dichlorophenyl)piperazin-1-yl)propyl)-1-isobutyl-2-methyl-5-phenyl-1H-pyrrole-3-carboxamide] were 406 nM, 381 nM and 342 nM.
As to `CCCn1c(-c2ccccc2)cc(C(=O)N(C)CCCN2CCN(c3cccc(Cl)c3Cl)CC2)c1C` [Example 31, N-(3-(4-(2,3-dichlorophenyl)piperazin-1-yl)propyl)-N,2-dimethyl-5-phenyl-1-propyl-1H-pyrrole-3-carboxamide hydrochloride], the IC50 in experiment [1] is 33.2 nM; in experiment [2], 102 nM; in experiment [3] it was 20.7 nM.
The corresponding values for `CCCn1c(-c2ccccc2)cc(C(=O)NCCCCN2CCN(c3cccc(C)c3C)CC2)c1C` [Example 33, N-(4-(4-(2,3-dimethylphenyl)piperazin-1-yl)butyl)-2-methyl-5-phenyl-1-propyl-1H-pyrrole-3-carboxamide hydrochloride] are 792 nM, 76 nM and 149 nM.
Take `CCCn1c(-c2ccccc2)cc(C(=O)NCCCCN2CCN(c3cccc(Cl)c3Cl)CC2)c1C` [Example 34, N-(4-(4-(2,3-dichlorophenyl)piperazin-1-yl)butyl)-2-methyl-5-phenyl-1-propyl-1H-pyrrole-3-carboxamide hydrochloride]: the IC50 in experiment [1] stood at 104 nM; in experiment [2] it was 76 nM; in experiment [3], 20.9 nM.
For the compound `Cc1cccc(N2CCN(CCCCNC(=O)c3cc(-c4ccccc4)n(C)c3C)CC2)c1C` [Example 35, N-(4-(4-(2,3-dimethylphenyl)piperazin-1-yl)butyl)-1,2-dimethyl-5-phenyl-1H-pyrrole-3-carboxamide hydrochloride], the 50% inhibitory concentration (IC50) in experiment [1] amounted to 61 nM; in experiment [2], 149 nM; in experiment [3], 61 nM.
On to `Cc1c(C(=O)NCCCCN2CCN(c3cccc(Cl)c3Cl)CC2)cc(-c2ccccc2)n1C` [Example 36, N-(4-(4-(2,3-dichlorophenyl)piperazin-1-yl)butyl)-1,2-dimethyl-5-phenyl-1H-pyrrole-3-carboxamide hydrochloride], for which the IC50 in experiment [1] turned out to be 28 nM; in experiment [2], 93 nM; in experiment [3], 32 nM.
For `Cc1c(C(=O)N(C)CCCN2CCN(c3cccc(Cl)c3Cl)CC2)cc(-c2ccccc2)n1C` [Example 37, N-(3-(4-(2,3-dichlorophenyl)piperazin-1-yl)propyl)-N,1,2-trimethyl-5-phenyl-1H-pyrrole-3-carboxamide hydrochloride], the half-inhibitory concentration (IC50) stood at 38.8 nM in experiment [1], 98 nM in experiment [2] and 34.5 nM in experiment [3].
In the case of `Cc1[nH]c(-c2ccccc2)cc1C(=O)NCCN1CCN(c2cccc(Cl)c2Cl)CC1` [Example 38, N-(2-(4-(2,3-dichlorophenyl)piperazin-1-yl)ethyl)-2-methyl-5-phenyl-1H-pyrrole-3-carboxamide hydrochloride], the IC50 is 40 nM in experiment [1], 87 nM in experiment [2] and 37 nM in experiment [3].
As for `CCCn1c(-c2ccccc2)cc(C(=O)NCCN2CCN(c3cccc(Cl)c3Cl)CC2)c1C` [Example 39, N-(2-(4-(2,3-dichlorophenyl)piperazin-1-yl)ethyl)-2-methyl-5-phenyl-1-propyl-1H-pyrrole-3-carboxamide hydrochloride], the IC50 in experiment [1] came out at 408 nM; in experiment [2], 32 nM; in experiment [3] it was 310 nM.
On to `Cc1cccc(N2CCN(CCCCNC(=O)c3cc(-c4ccccc4)[nH]c3C)CC2)c1C` [Example 40, N-(4-(4-(2,3-dimethylphenyl)piperazin-1-yl)butyl)-2-methyl-5-phenyl-1H-pyrrole-3-carboxamide hydrochloride], for which the IC50 in experiment [1] amounted to 10 nM; in experiment [2] it was 21 nM; in experiment [3], 63 nM.
On to `Cc1[nH]c(-c2ccccc2)cc1C(=O)NCCCCN1CCN(c2cccc(Cl)c2Cl)CC1` [Example 41, N-(4-(4-(2,3-dichlorophenyl)piperazin-1-yl)butyl)-2-methyl-5-phenyl-1H-pyrrole-3-carboxamide hydrochloride], for which the IC50 came out at 13 nM in experiment [1], 21 nM in experiment [2] and 14 nM in experiment [3].
